# Results taken from ChEMBL document CHEMBL5321277, “Discovery and Mechanism Study of SARS-CoV-2 3C-like Protease Inhibitors with a New Reactive Group” (J Med Chem, 2023).
# Columns and labels:
# [1] = biological target: T1, Replicase polyprotein 1ab (Severe acute respiratory syndrome coronavirus 2, UniProt P0DTD1); test: Inhibition of N-terminal His6-tagged recombinant full length SARS-CoV-2 3CLpro expressed in Escherichia coli BL21(DE3) using MCA-AVLQSGFR-Lys(Dnp)-Lys-NH2 as fluorogenic substrate preincubated with compound for 10 mins followed by substrate addition by FRET assay
# [2] = biological target: T1, Replicase polyprotein 1ab; test: Inhibition of SARS-CoV-2 PLpro using RLRGG-AMC as fluorogenic substrate preincubated with compound for 30 mins followed by substrate addition by fluorescence based microplate reader assay
# Caspase-6 = biological target: T2, Caspase-6 (Homo sapiens, UniProt P55212); test: Inhibition of Caspase-6 (unknown origin)
# T2 sequence (P55212 whole entry): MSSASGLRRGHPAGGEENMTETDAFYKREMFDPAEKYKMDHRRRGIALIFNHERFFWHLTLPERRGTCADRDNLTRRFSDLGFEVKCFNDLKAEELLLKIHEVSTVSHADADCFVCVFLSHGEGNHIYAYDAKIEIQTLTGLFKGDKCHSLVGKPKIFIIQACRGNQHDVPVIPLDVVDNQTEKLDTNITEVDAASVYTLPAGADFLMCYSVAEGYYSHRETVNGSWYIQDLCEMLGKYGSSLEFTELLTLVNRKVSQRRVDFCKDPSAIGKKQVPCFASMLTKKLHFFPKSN
# Chymotrypsin = Chymotrypsin (Homo sapiens, UniProt Q99895+P17538+P40313+Q6GPI1); test: Inhibition of Chymotrypsin (unknown origin) using N-succinyl-AAPF-AMC as fluorogenic substrate preincubated for 10 mins followed by substrate addition and measured for 10 mins by fluorescence based assay; format: protein assay
# Procathepsin L [3] = biological target: T3, Procathepsin L (Homo sapiens, UniProt P07711); test: Inhibition of Cathepsin L (unknown origin) using Z-VVR-AMC as fluorogenic substrate at 20 uM preincubated for 10 mins followed by substrate addition and measured for 10 mins by fluorescence based assay; settings: time 20.0 min
# Target sequence in this assay (P07711 114-333 limits assumed): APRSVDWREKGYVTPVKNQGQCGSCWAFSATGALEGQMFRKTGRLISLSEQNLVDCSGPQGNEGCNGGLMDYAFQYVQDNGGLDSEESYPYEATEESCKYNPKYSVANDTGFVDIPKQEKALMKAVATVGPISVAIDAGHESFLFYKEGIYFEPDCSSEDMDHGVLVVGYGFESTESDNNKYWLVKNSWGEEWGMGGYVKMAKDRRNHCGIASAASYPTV
# Cathepsin B = Cathepsin B (Homo sapiens, UniProt P07858); test: Inhibition of Cathepsin B (unknown origin) using Z-RR-AMC as fluorogenic substrate preincubated for 10 mins followed by substrate addition and measured for 10 mins by fluorescence based assay
# Cathepsin G = biological target: T4, Cathepsin G (Homo sapiens, UniProt P08311); test: Inhibition of Cathepsin G (unknown origin) measured for 1 to 2 hrs by fluorescence based assay
# T4 sequence (P08311 whole entry): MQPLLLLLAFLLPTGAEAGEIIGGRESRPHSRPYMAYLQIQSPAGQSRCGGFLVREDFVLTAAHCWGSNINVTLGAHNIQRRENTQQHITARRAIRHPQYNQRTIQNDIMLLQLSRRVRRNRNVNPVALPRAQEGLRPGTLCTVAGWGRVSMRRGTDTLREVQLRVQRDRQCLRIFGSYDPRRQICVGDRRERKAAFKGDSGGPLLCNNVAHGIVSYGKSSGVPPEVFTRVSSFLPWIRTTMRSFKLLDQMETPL
# [4] = biological target: Replicase polyprotein 1ab (Severe acute respiratory syndrome coronavirus 2) (UniProt P0DTD1); test: Inhibition of N-terminal His6-tagged recombinant full length SARS-CoV-2 3CLpro expressed in Escherichia coli BL21(DE3) assessed as Kobs, ratio of Kinact/Ki using MCA-AVLQSGFR-Lys(Dnp)-Lys-NH2 as fluorogenic substrate incubated for 3 hrs by FRET assay
# [5] = biological target: T1, Replicase polyprotein 1ab; test: Inhibition of N-terminal His6-tagged recombinant full length SARS-CoV-2 3CLpro expressed in Escherichia coli BL21(DE3) assessed as inhibition constant using MCA-AVLQSGFR-Lys(Dnp)-Lys-NH2 as fluorogenic substrate incubated for 3 hrs by FRET assay
# SARS-CoV-2 = test: microbe, parasite or virus in culture; settings: Severe acute respiratory syndrome coronavirus 2, B1.617.2 (Delta), Vero C1008, 24 h
# Procathepsin L [6] = biological target: T3, Procathepsin L; test: Inhibition of Cathepsin L (unknown origin) using Z-VVR-AMC as fluorogenic substrate preincubated for 10 mins followed by substrate addition and measured for 10 mins by fluorescence based assay
# Target sequence in this assay (P07711 whole entry): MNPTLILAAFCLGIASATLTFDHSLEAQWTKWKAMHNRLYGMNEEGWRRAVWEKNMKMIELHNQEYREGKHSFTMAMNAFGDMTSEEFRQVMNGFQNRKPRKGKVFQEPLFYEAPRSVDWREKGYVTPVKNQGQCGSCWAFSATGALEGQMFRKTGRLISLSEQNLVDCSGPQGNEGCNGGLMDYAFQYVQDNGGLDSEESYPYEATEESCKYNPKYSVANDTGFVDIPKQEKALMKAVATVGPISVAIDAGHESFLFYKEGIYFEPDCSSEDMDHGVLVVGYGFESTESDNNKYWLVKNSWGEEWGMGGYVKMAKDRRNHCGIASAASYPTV
smiles,measurement,setting,value
N#CSCC(=O)N1c2ccccc2Sc2ccc(Cl)cc21,IC50,[1],0.524 µM
CC(=O)c1ccc2c(c1)N(C(=O)CSC#N)c1ccccc1S2,IC50,[1],1.06 µM
COc1ccc2c(c1)N(C(=O)CSC#N)c1ccccc1S2,IC50,[1],2.9 µM
N#CSCC(=O)N1c2ccccc2CCc2ccccc21,IC50,[2],> 100 µM
same,IC50,Caspase-6,> 50 µM
same,IC50,Chymotrypsin,> 100 µM
same,IC50,[1],2.21 µM
same,inhibition,Procathepsin L [3],70.3%
same,IC50,Cathepsin B,> 50 µM
same,IC50,Cathepsin G,> 50 µM
same,Kobs,[4],327 M⁻¹ s⁻¹
same,Ki,[5],43.6 µM
N#CSCC(=O)N1c2ccccc2Sc2ccccc21,IC50,[1],1.85 µM
N#CSCC(=O)N1c2ccccc2Sc2ccc(C(F)(F)F)cc21,IC50,[1],4.6 µM
same,EC50,SARS-CoV-2,3.14 µM
CCC(=O)c1ccc2c(c1)N(C(=O)CSC#N)c1ccccc1S2,IC50,[1],3.33 µM
N#CSCC(=O)N1c2ccccc2CCc2ccc(Cl)cc21,IC50,[1],0.478 µM
same,EC50,SARS-CoV-2,2.5 µM
same,Ki,[5],24.9 µM
N#CSCC(=O)N1c2ccccc2Oc2ccccc21,IC50,[1],3.96 µM
same,EC50,SARS-CoV-2,5.38 µM
N#CSCC(=O)N1c2ccccc2Sc2ccc(C#N)cc21,IC50,[2],> 100 µM
same,IC50,Procathepsin L [6],> 100 µM
same,IC50,Caspase-6,> 50 µM
same,IC50,Chymotrypsin,> 100 µM
same,IC50,[1],0.322 µM
same,IC50,Cathepsin B,> 50 µM
same,IC50,Cathepsin G,> 50 µM
same,Kobs,[4],1670 M⁻¹ s⁻¹
same,Ki,[5],18.1 µM
CCSc1ccc2c(c1)N(C(=O)CSC#N)c1ccccc1S2,IC50,[1],2.64 µM
